Reference: patent US20260191196A1, “COMPOSITIONS AND METHODS FOR IMPROVING SOIL MICROBIAL POPULATIONS” (SYNGENTA CROP PROTECTION AG, priority 2022, published 2026)

The compounds below were run on arbuscular mycorrhizae fungi (assay: Mycorrhization in soybean roots after seed treatment). Settings: Glycine max; soybean variety Toliman, seed treatment 0.15 mg ai/seed, mycorrhizal inoculant Blend A; relative to control; read-out: [%] arbuscular mycorrhizae fungi colonization vs. control.
Format: in vivo
Method: Soybeans of variety Toliman were treated with 0.15 mg ai/seed of cyclobutrifluram and analogues, and planted in 1.5 L pots of 0-3 mm sieved soil. The seeds were inoculated with Bradyrhizobium japonicum using a commercially available product for soybeans.
In a first series, for each active ingredient tested, 15 replicate pots were sowed. In each pot, 3 seeds were sowed. After germination, 2 seedling was removed from each pot to a final number of 1 plant per pot. Each pot was inoculated with a small amount of a mycorrhizal inoculant (Blend A, commercially available from Symbiom, Czech Republic). The plants were grown in a greenhouse for 81 days under the following conditions: Humidity at 45-64%, Temperature of 22° C. to 24° C., in a 16/8 hour day/night cycle. In a further test series, Soybeans seeds treated as outlined above were then planted in 1 Lpots of 0-3 mm sieved soil. For each active ingredient, 8 replicate pots were sowed, whereby in each pot, 3 seeds were sowed. After germination, 2 seedlings were removed from each pot to a final number of 1 plant per pot.
The plants were then grown in a growth chamber for 42 days with the following conditions: Temperature of 20° C. and with a 12/12 hour day/night.
After harvest, the percent mycorrhization was quantified using the methods of McGonigle et al. (T. P. McGONIGLE, M. H. MILLER and D. G. EVANS et al., “A new method which gives an objective measure of colonization of roots by vesicular-arbuscular mycorrhizal fungi”. New Phytol. Vol. 115 (3): 495-501.).

In order of rising response vs control in vivo at 0.15 mg/seed:
1. O=C(N[C@H]1CC[C@H]1c1ccc(F)cc1F)c1nccnc1C(F)(F)F [Compound A1]  61%
2. O=C(N[C@H]1CC[C@H]1c1ccc(F)cc1F)c1ncccc1C(F)(F)F [Compound A4]  67%
3. O=C(N[C@H]1CC[C@H]1c1ccc(F)cc1Cl)c1cccnc1C(F)(F)F [Compound A2]  72%
4. O=C(N[C@@H]1CO[C@@H]1c1ccc(Cl)cc1Cl)c1cccnc1C(F)(F)F (racemic) [Compound A7]  76%
5. O=C(N[C@@H]1CO[C@@H]1c1ccc(F)cc1F)c1nccnc1C(F)(F)F (racemic) [Compound A5]  81%
6. O=C(N[C@H]1CC[C@H]1c1ccc(F)cc1Cl)c1ncccc1C(F)(F)F [Compound A3]  84%
7. O=C(N[C@@H]1CO[C@@H]1c1ccc(Cl)cc1Cl)c1nccnc1C(F)(F)F (racemic) [Compound A6]  97%

The compounds below were run on bacteria (16S) and fungi (ITS) communities (assay: Potato field trial: soil microbiome community and biodiversity). Settings: not given.
Format: in vivo, potato (Solanum tuberculosum L.)
Method: In this experiment, assuming that biodiversity can be measured by the taxonomic richness and abundance of each taxon, the differences between treatments are determined and their effect on populations and beneficial species over time is verified. This leads to testing two hypotheses. Firstly, there is an impact of cyclobutrifluram applications on microbial diversity. Secondly, the use of cyclobutrifluram improves beneficial microbial diversity over time. These hypotheses were tested in two potato farms in the USA.
The experiment was carried out in two potato (Solanum tuberculosum L.) fields located in two test locations in Louisiana, USA, described as locations A and B in Table 2. In each experimental field, three products were tested in an area of 10 m^2 (Table 3) and three replicates per product were established by complete block randomized. To evaluate the effects on the microbiome a “Check” plot (untreated) was established. In addition, fluopyram was employed as a comparative example. Fluopyram is a widely used fungicide and nematicide, and represents the industry standard herein.
To analyse the microbial biodiversity, three soil samples were taken per treatment and each sample consisted of soil collected from three different points within the plots. In this way, the effect of soil variability was minimized, since there were nine samples per treatment. […]
As set out above, to detect microbial community modifications in the soil microbiome associated with the cyclobutrifluram treatment, PCR amplification and successive high-throughput sequencing of bacterial and fungal taxonomical marker genes (the small-subunit ribosomal RNA gene (16S) and the ribosomal internal transcribed spacers (ITS) respectively) were performed on plant-associated soil samples. An exploratory data analysis was conducted to describe the microbial biodiversity and the behaviour of the percentage of the abundance of species under the evaluated factors. […]

For `O=C(NCCc1ncc(C(F)(F)F)cc1Cl)c1ccccc1C(F)(F)F` [fluopyram], the “beneficial effect on soil microbiome” value was “did not show any beneficial effect”.

Same assay, conditions: 250 gai/ha

With `O=C(NCCc1ncc(C(F)(F)F)cc1Cl)c1ccccc1C(F)(F)F` [fluopyram] the “impact on plant-pathogenic microbes” value was “showed an impact in promoting in particular plant-pathogenic microbes”.
